Assay results taken from patent US20070043114A1, “Nerve regeneration promoters” (priority 2003, published 2007).

What was measured:
[1] = system: astrocytes derived from cerebral cortex of rats; experiment: differentiation test of astrocytes derived from cerebral cortex of rats; format: cell-based, rats of Wistar strain; conditions: for positive cell numbers per visual field stained by an anti-βIII-tubulin antibody: differentiated seven days, no compound-added group 93±10.9
Procedure: Cerebrum was excised from newly-born rats of Wistar strain and, after removal of meninx under a stereoscopic microscope, it was ground with a frost part of a slide glass with frost in an ice-cooled DMEM medium to prepare a suspension. Centrifugal separation was conducted at 100×g for 3 minutes and the precipitate was suspended in a 10% bovine fetal serum-DMEM medium and sown in a 75-cm^2 flask. After two days from the start of culturing, cell purification was conducted. On the 19th day from the start of the culturing, astrocytes were recovered using 0.05% trypsin/EDTA and the cells were suspended again using a differentiation medium (a DMEM/F12 medium (Gibco) containing N2 additive (N2 Plus Supplement; R&D Systems) and 1% fetal bovine serum (manufactured by Dainippon Pharmaceutical). That was sown on a chamber slide and, on the next day, the culturing solution was exchanged to a differentiated medium (a DMEM/F12 medium comprising N2 additive, antibiotic and 1% fetal bovine serum) containing a test compound. After differentiating for seven days, fixation was conducted using 4% paraformaldehyde and the following immunostaining was conducted. With regard to nerve cells prepared by differentiation of astrocytes derived from cerebral cortex of rats, their differentiation stage was confirmed by means of immunostaining. Incidentally, anti-βIII-tubulin antibody and anti-doublecortin antibody were used for confirmation of young nerve cells; anti-MAP2 antibody, anti-NeuN antibody and anti-NSE antibody were used for confirmation of mature nerve cells; and anti-GABA antibody was used for confirmation of functional nerve cells.

sciatic nerve = conditions: mature rat, axon of sciatic nerve cut; Brain Research 975, 229-236 (2003); cited from earlier work
[2] = dog, in vivo, 100 mg/kg
From the text: Toxicity of the compound of the present invention is sufficiently low and has been confirmed to be sufficiently safe for using as a medicament.

[3] = system: four-vein ligated (4VO) rat model; experiment: 4VO rat model: BrdU and NeuN double immunostaining, hippocampus CA1 region; format: in vivo, rat of Wistar strain; conditions: 4VO rats, 10 mg/kg oral once daily for 40 days from 8th day after 4VO, n=13
Procedure: (§1) A four-vein ligated (4VO) rat model was prepared by a partially modified method by Prusinery, et al. (J. Cereb. Blood Flow Metab., 16, 973-980 […]). Thus, vertebral arteries on both sides of male rat of Wistar strain were permanently obstructed and, on the next day, whole carotid artery was exposed and was temporally obstructed for 10 minutes using a clip. Rats where no response was noted immediately after obstruction of whole carotid arteries on both sides and forward-facing response disappeared were used for the experiment.
Evaluation of nerve cell regeneration was conducted by preparing brain tissue sample by Nissl staining and counting nerve cell numbers in right and left hippocampus CA1 regions.
Confirmation of the fact that […] nerve cells increased in Example 1-A-2-1 were regenerated nerve cells was conducted by preparing a brain tissue sample immunostained with BrdU and NeuN and counting nerve cell numbers which were positive to double staining in right and left hippocampus CA1 region. […] Nerve cell numbers which were positive to double staining were calculated as number per unit length (mm) using nerve cell layer length of the hippocampus CA1 region and nerve cell numbers which were positive to double staining.

[4] = system: four-vein ligated (4VO) rat model; experiment: 4VO rat model: water maze learning test; format: in vivo, rat of Wistar strain; conditions: 4VO rats; for successful times compared with the control group (χ2 test): fourth session, p<0.05
Procedure: as §1
A four-vein ligated (4VO) rat model was prepared according to a method mentioned in Example 1-A-1 and subjected to the following test.
In the water maze learning test, a black circular pool (manufactured by Neuroscience) of 150 cm diameter and 50 cm height was used. The pool was filled with tap water of about 23° C. to a height of about 30 cm (platform surface was about 1 cm beneath the water surface). The platform (made of colorless and transparent acrylate; circular shape having 10 cm diameter) which was to be a goal was placed in a distance of about 35 cm from the inner wall of the pool. During the test period, positions of things which were hints for recognition of space such as racks, illumination instruments and persons who conducted the experiments were made constant and illumination level was made constant as well.
Rats on the third day after completion of repetitive administrations were allowed to stand at a starting position and the time until they climbed up to the platform (escape latency (seconds)) was measured. Maximum swimming time for climbing up to the platform was made 90 seconds and, when a rat climbed up to the plant form, it was allowed to stand there for about 30 seconds and then returned to a cage. When a rat was unable to climb up to the platform within a measuring time of 90 seconds, the rat was taken out from water, transferred onto the platform, allowed to stand there for about 30 seconds and returned to the cage. Incidentally, the escape latency at that time was counted as 90 seconds. Interval between trials was made about 30 minutes, four trials were conducted a day and they were defined as one session. Such a session was conducted for continued four days and (1) escape latency and (2) successful times (times of being able to reach the platform during four trials) were evaluated.

[5] = system: four-vein ligated (4VO) rat model; experiment: 4VO rat model: histological observation (Nissl-stained specimen), hippocampus CA1 nerve cell numbers; format: in vivo, rat of Wistar strain; conditions: 4VO rats, 1 mg/kg oral
Procedure: as §1
A four-vein ligated (4VO) rat model was prepared according to a method mentioned in Example 1-A-1 and subjected to the following test. […]
With regard to the specimens for histopathological test, three kinds of specimens, i.e. (1) Nissl-stained specimen (a site of 5.7 mm from interaural line), (2) specimen stained with hematoxylin-eosin and (3) unstained specimen (thickness: 10 μm) were prepared for brain tissue sample from one animal. Among them, with regard to the Nissl-stained specimen, right and left hippocampus CA1 nerve cell layer lengths and nerve cell numbers were measured by using Image Analyzer (MCID Elite 7.0 Rev.1.0) and numbers per unit length (mm) were calculated to conduct a histological evaluation.

[6] = system: nerve stem cells derived from striatum of a rat; experiment: differentiation test of stem cells derived from fetal brain of rats; format: cell-based, rat of Wistar strain; conditions: 30 μmol/L
Procedure: Fetus was taken out from a pregnant rat of Wistar strain and striatum was excised from brain of the fetus. Cells were dispersed by means of pipetting and incubated for six to seven days in a growth medium (a DMEM/F12 medium (manufactured by Gibco) containing N2 additive (N2 Plus Supplement; R&D Systems), antibiotics, basic fibroblast growth factor (20 ng/mL bFGF; manufactured by R&D Systems) and epithelial cell growth factor (20 ng/mL EGF; manufactured by R&D Systems). The resulting neurospheres were recovered, cells were dispersed by means of pipetting and culturing was conducted for six to seven days more using a growth medium. Neurospheres which were produced again were recovered and, after cells were dispersed, they were cultured on a chamber slide subjected to a poly-L-ornithine coating. After incubating for 24 hours, exchange to a differentiated medium comprising a test compound (a DMEM/F12 medium comprising N2 additive, antibiotic and 1% fetal bovine serum) was conducted. After differentiating for seven days, fixation was conducted with 4% paraformaldehyde and a immunostaining was conducted using a mouse anti-βIII-tubulin antibody (second antibody: FITC-labeled anti-mouse IgG antibody) which is to be an index for differentiation from nerve stem cells to nerve cells).
For example, when 30 μmol/L of (2R)-2-propyloctanoic acid was used, the cell numbers in the no compound-added group were 8±1.3 (in eight visual fields) while those in the group to which the compound was added were 31±4.6 (in eight visual fields).
With regard to the above nerve cells prepared by differentiation of nerve stem cells derived from striatum of rats, their differentiation stage was confirmed by means of immunostaining. Incidentally, for the confirmation of mature nerve cells, anti-MAP2 antibody was used while, for the confirmation of functional nerve cells, anti-GABA antibody was used.

In the case of `CCCC(CCC)C(=O)O` [2-propylpentanoic acid], the “positive cell numbers per visual field stained by an anti-βIII-tubulin antibody” value ([1]; 300 μmol/L) is given as 174.8±7.8 and the “axon elongation and recovery of kinetic function” value (sciatic nerve) is given as “the axon is elongated and kinetic function is recovered”.

With `CCCCCC[C@@H](CCC)C(=O)O` [(2R)-2-propyloctanoic acid] the dead cases [2] was “no dead case was noted”, the “cells positive to double staining (anti-BrdU and anti-NeuN) per mm, hippocampus CA1 region” value [3] was 5.7±1.2 cells/mm and the Escape latency ([4]; 1 mg/kg oral, session 1) was 68.2 ± 3.5 s. It also gave an Escape latency ([4]; 1 mg/kg oral, session 2) of 61.8 ± 4.4 s, an Escape latency ([4]; 1 mg/kg oral, session 3) of 52.5 ± 6.9 s and an Escape latency ([4]; 1 mg/kg oral, session 4) of 46.9 ± 7.6 s. The “successful times compared with the control group (χ2 test)” value ([4]; 3 mg/kg oral) was “significant difference”, the Escape latency ([4]; 3 mg/kg oral, session 1) was 63.2 ± 3.8 s and the Escape latency ([4]; 3 mg/kg oral, session 2) was 48.7 ± 5.5 s. For the same compound, the Escape latency ([4]; 3 mg/kg oral, session 3) was 42.8 ± 6.4 s, the “successful times compared with the control group (χ2 test)” value ([4]; 10 mg/kg oral) was “significant difference” and the Escape latency ([4]; 10 mg/kg oral, session 1) was 66.8 ± 3.7 s. The Escape latency ([4]; 10 mg/kg oral, session 2) was 44.5 ± 4.5 s, the Escape latency ([4]; 10 mg/kg oral, session 3) was 41.4 ± 5.2 s and the “Nerve cell density, hippocampus CA1 region” value [5] was 45.0 ± 5.6 cells/mm. The “βIII-tubulin-positive (Tuj1+) cell numbers per visual field” value ([6]; differentiated seven days, eight visual fields, 100 magnifications, no compound-added group 8±1.3) was 31±4.6, the “positive cell numbers per visual field stained using an anti-GABA antibody” value ([6]; no compound-added group 19±2.7) was 101±9.5 and the “positive cell numbers per visual field stained using an anti-MAP2 antibody” value ([6]; no compound-added group 34±0.9) was 50±7.4. For the same compound, the “positive cell numbers per visual field stained by an anti-βIII-tubulin antibody” value ([1]; 30 μmol/L) was 177±11.8, the “positive cell numbers stained by an anti-GABA antibody” value ([1]; 30 μmol/L, no compound-added group 20±1.0) was 60±8.8 and the “positive cell numbers stained by an anti-MAP2 antibody” value ([1]; 30 μmol/L, no compound-added group 50±7.4) was 104±10.3. For the same compound, the “positive cell numbers stained by an anti-doublecortin antibody” value ([1]; 30 μmol/L, no compound-added group 55±5.7) was 168±16.6, the “positive cell numbers stained by an anti-NeuN antibody” value ([1]; 30 μmol/L, no compound-added group 106) was 199 and the “positive cell numbers stained by an anti-NSE antibody” value ([1]; 30 μmol/L, no compound-added group 108) was 166. For the same compound, the “positive cell numbers per visual field stained by an anti-βIII-tubulin antibody” value ([1]; 100 μmol/L) was 230±11.0.
